Laboratory results from patent publication US8883782B2, “Spiro-tetracyclic ring compounds as beta-secretase modulators and methods of use” (Amgen Inc., priority 2010, dated 2014).
Like-named read-outs stand apart in the source and are kept apart here.

Columns and labels:
[1] = target: Beta Secretase enzyme (BACE) (Homo sapiens, UniProt P56817); assay: In vitro enzymatic BACE FRET (fluorescence resonance energy transfer) assay; assay type: biochemical
How it was run: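 Buffer 0.05 M acetate pH 4.2, 10% DMSO final, 100 uM genapol (sub-CMC); start with 50 nM FRET substrate; 1 h incubation; Tris stop; fluorescence read.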

[2] = tested on: Aβ40 in conditioned medium of cells stably expressing Amyloid Precursor Protein (APP); assay: In vitro BACE cell-based assay (Aβ40 in conditioned medium, sandwich ELISA)
How it was run: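 Conditioned medium from stably APP-expressing cells treated with compound dose series is assayed for Aβ40 by sandwich ELISA with time-resolved fluorescence detection. IC50 is calculated from percent inhibition of Aβ40 against compound concentration.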

[3] = average IC50, enzyme assay, read-out: BACE 1 FRET assay
[4] = Homo sapiens, HEK293, average IC50, read-out: HEK cell assay
[5] = Homo sapiens, HEK293, average IC50, HEK cells, read-out: HEK cell assay

Chain of Beta Secretase enzyme (BACE) (P56817 46-501, species assumed): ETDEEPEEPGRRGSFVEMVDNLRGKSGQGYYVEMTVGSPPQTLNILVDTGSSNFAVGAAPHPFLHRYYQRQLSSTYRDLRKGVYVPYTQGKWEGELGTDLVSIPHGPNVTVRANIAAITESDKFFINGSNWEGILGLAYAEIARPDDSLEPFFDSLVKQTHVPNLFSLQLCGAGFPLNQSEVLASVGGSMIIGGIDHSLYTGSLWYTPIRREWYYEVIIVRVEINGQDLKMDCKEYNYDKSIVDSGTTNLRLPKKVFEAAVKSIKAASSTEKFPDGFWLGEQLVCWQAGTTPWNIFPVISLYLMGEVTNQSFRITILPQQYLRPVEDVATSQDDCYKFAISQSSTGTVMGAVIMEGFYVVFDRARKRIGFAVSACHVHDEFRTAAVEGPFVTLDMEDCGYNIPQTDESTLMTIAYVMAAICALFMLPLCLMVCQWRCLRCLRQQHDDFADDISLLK

Row | SMILES | IC50 [1, 3] [µM] | IC50 [2, 4] [µM] | IC50 [2, 5] [µM] | also measured
1 | CC1(C)C[C@@H](c2cc3c(cn2)Oc2ccc(-c4ccc(F)nc4)cc2[C@@]32COC(N)=N2)CCO1 [Example 379, (5S)-3-((4S)-2,2-dimethyltetrahydro-2H-pyran-4-yl)-7-(6-fluoro-3-pyridinyl)spiro[chromeno[2,3-c]pyridine-5,4′-[1,3]oxazol]-2′-amine] | 0.0232 | 0.176 | – | –
2 | Cc1cnc(F)c(-c2ccc3c(c2)[C@@]2(COC(N)=N2)c2cc(N4CCC(F)(F)C4)ncc2O3)c1 [Example 421, (5S)-3-(3,3-difluoro-1-pyrrolidinyl)-7-(2-fluoro-5-methyl-3-pyridinyl)spiro[chromeno[2,3-c]pyridine-5,4′-[1,3]oxazol]-2′-amine] | 0.0005 | – | 0.0053 | –
3 | CC1(COc2cc(F)c3c(c2)[C@]2(COC(N)=N2)c2cc(-c4cnccn4)ccc2O3)COC1 [Example 267, (4S)-4′-fluoro-2′-((3-methyl-3-oxetanyl)methoxy)-7′-(2-pyrazinyl)spiro[1,3-oxazole-4,9′-xanthen]-2-amine] | 0.0031 | 0.012 | – | –
4 | NC1=N[C@@]2(CO1)c1cc(-c3cc(C4=CCOCC4)cnc3F)ccc1Oc1cnc(C3=CCOCC3)cc12 [Example 362, (5S)-3-(3,6-dihydro-2H-pyran-4-yl)-7-(5-(3,6-dihydro-2H-pyran-4-yl)-2-fluoro-3-pyridinyl)spiro[chromeno[2,3-c]pyridine-5,4′-[1,3]oxazol]-2′-amine] | 0.0063 | 0.114 | – | –
5 | COc1ccc(-c2cc(F)c3c(c2)[C@]2(COC(N)=N2)c2cc(-c4cncc(F)c4)ccc2O3)nn1 [Example 290, (4S)-4′-fluoro-7′-(5-fluoro-3-pyridinyl)-2′-(6-methoxy-3-pyridazinyl)spiro[1,3-oxazole-4,9′-xanthen]-2-amine] | 0.0008 | 0.0081 | – | –
6 | Cn1cc(-c2cc3c(cn2)Oc2ccc(-c4cncc(Cl)c4)cc2[C@@]32COC(N)=N2)cn1 [Example 232, (5S)-7-(5-chloro-3-pyridinyl)-3-(1-methyl-1H-pyrazol-4-yl)spiro[chromeno[2,3-c]pyridine-5,4′-[1,3]oxazol]-2′-amine] | 0.0013 | 0.0074 | – | –
7 | CC(C)(C)/C=C/c1cc2c(cn1)Oc1ccc(-c3ccc(F)nc3)cc1[C@@]21COC(N)=N1 [Example 434, (5S)-3-((1E)-3,3-dimethyl-1-buten-1-yl)-7-(6-fluoro-3-pyridinyl)spiro[chromeno[2,3-c]pyridine-5,4′-[1,3]oxazol]-2′-amine] | 0.003 | – | 0.0317 | –
8 | CC1(/C=C/c2cnc3c(c2)[C@]2(COC(N)=N2)c2cc(-c4ccc(F)nc4)ccc2O3)COC1 [Example 176, (5S)-7-(6-fluoro-3-pyridinyl)-3-((E)-2-(3-methyl-3-oxetanyl)ethenyl)spiro[chromeno[2,3-b]pyridine-5,4′-[1,3]oxazol]-2′-amine] | 0.0012 | 0.0032 | – | –
9 | CC1(C#Cc2cnc3c(c2)[C@]2(COC(N)=N2)c2cc(-c4cnccn4)ccc2O3)COC1 [Example 168, (5S)-3-((3-methyl-3-oxetanyl)ethynyl)-7-(2-pyrazinyl)spiro[chromeno[2,3-b]pyridine-5,4′-[1,3]oxazol]-2′-amine] | 0.0033 | 0.0145 | – | –
10 | Cc1cncc(-c2ccc3c(c2)[C@@]2(COC(N)=N2)c2cc(-c4ccnc(C#N)c4)ncc2O3)c1 [Example 141, 4-((5S)-2′-amino-7-(5-methyl-3-pyridinyl)spiro[chromeno[2,3-c]pyridine-5,4′-[1,3]oxazol]-3-yl)-2-pyridinecarbonitrile] | 0.0174 | 0.114 | – | –
11 | NC1=N[C@@]2(CO1)c1cc(-c3cncc(F)c3)ccc1Oc1cnc(N3CCC(F)(F)C3)cc12 [Example 413, (5S)-3-(3,3-difluoro-1-pyrrolidinyl)-7-(5-fluoro-3-pyridinyl)spiro[chromeno[2,3-c]pyridine-5,4′-[1,3]oxazol]-2′-amine] | 0.0008 | – | 0.0056 | –
12 | Cc1ccnc(F)c1-c1ccc2c(c1)[C@@]1(COC(N)=N1)c1cc(-c3ccnc(F)c3)ncc1O2 [Example 237, (5S)-7-(2-fluoro-4-methyl-3-pyridinyl)-3-(2-fluoro-4-pyridinyl)spiro[chromeno[2,3-c]pyridine-5,4′-[1,3]oxazol]-2′-amine] | 0.0016 | 0.0224 | – | –
13 | CC(C)(C)/C=C/c1ccc2c(c1)[C@]1(COC(N)=N1)c1cc(-c3cncnc3)c(F)cc1O2 [Example 496, (4R)-7′-((1E)-3,3-dimethyl-1-buten-1-yl)-3′-fluoro-2′-(5-pyrimidinyl)spiro[1,3-oxazole-4,9′-xanthen]-2-amine] | – | – | – | IC50 ([1]; BACE 1 FRET assay (uM)): 0.0014 µM; IC50 ([2]; Homo sapiens, HEK293, read-out: HEK cell assay (uM), average IC50, HEK cells): 0.0311 µM
14 | Cc1ccc(-c2ccc3c(c2)[C@@]2(COC(N)=N2)c2cc(-c4ccnc(F)c4)ncc2O3)c(F)n1 [Example 254, (5S)-7-(2-fluoro-6-methyl-3-pyridinyl)-3-(2-fluoro-4-pyridinyl)spiro[chromeno[2,3-c]pyridine-5,4′-[1,3]oxazol]-2′-amine] | 0.0545 | 1.07 | – | –
15 | NC1=N[C@@]2(CO1)c1cc(I)ccc1Oc1ncc(Br)cc12 [Example 1016, (5S)-3-bromo-7-iodospiro[chromeno[2,3-b]pyridine-5,4′-[1,3]oxazol]-2′-amine] | 0.0007 | 0.012 | – | –

More lines, main results first:

Row | IC50 [1, 3] [µM] | IC50 [2, 4] [µM] | IC50 [2, 5] [µM] | SMILES | also measured
16 | 0.0004 | 0.005 | – | NC1=N[C@@]2(CS1)c1cc(-c3cccnc3F)ccc1Oc1c(F)cc(N3CC4CC3CO4)cc12 (stereo partly drawn) [Example 1078, (4S)-4′-fluoro-7′-(2-fluoro-3-pyridinyl)-2′-(2-oxa-5-azabicyclo[2.2.1]hept-5-yl)spiro[1,3-thiazole-4,9′-xanthen]-2-amine] | –
17 | 0.0003 | – | 0.004 | CC#Cc1cncc(-c2ccc3c(c2)[C@@]2(COC(N)=N2)c2cc(C4=CCOCC4)cc(F)c2O3)c1 [Example 946, (4S)-2′-(3,6-dihydro-2H-pyran-4-yl)-4′-fluoro-7′-(5-(1-propyn-1-yl)-3-pyridinyl)spiro[1,3-oxazole-4,9′-xanthen]-2-amine] | –
18 | 0.0051 | – | – | CC1(C)C[C@H](c2cnc3c(c2)[C@]2(COC(N)=N2)c2cc(-c4cccc(C#N)c4)ccc2O3)CCO1 [Example 471, 3-((5S)-2′-amino-3-((4R)-2,2-dimethyltetrahydro-2H-pyran-4-yl)spiro[chromeno[2,3-b]pyridine-5,4′-[1,3]oxazol]-7-yl)benzonitrile] | IC50 ([2]; average IC50, HEK cells, read-out: HEK cell assay): 0.014 µM
19 | 0.0002 | 0.003 | – | NC1=N[C@@]2(CO1)c1cc(-c3cccnc3F)ccc1Oc1c(F)cc(C3=C(Cl)COCC3)cc12 [Example 805, (4S)-2′-(5-chloro-3,6-dihydro-2H-pyran-4-yl)-4′-fluoro-7′-(2-fluoro-3-pyridinyl)spiro[1,3-oxazole-4,9′-xanthen]-2-amine] | –
20 | 0.0035 | 0.07 | – | COc1nc(-c2ccncc2)cc2c1Oc1ccc(-c3cccnc3F)cc1[C@@]21COC(N)=N1 [Example 834, (5S)-7-(2-fluoro-3-pyridinyl)-1-methoxy-3-(4-pyridinyl)spiro[chromeno[2,3-c]pyridine-5,4′-[1,3]oxazol]-2′-amine] | –
21 | 0.0224 | – | 0.205 | CN(C)c1cc2c(cn1)Oc1ccc(-c3cccnc3F)cc1C21COC(N)=N1 (racemic) [Example 706] | –
22 | 0.0089 | – | 0.145 | COc1cc(F)c2c(c1)[C@]1(COC(N)=N1)c1cc(-c3cncnc3)c(F)cc1O2 [Example 556, (4S)-3′,5′-difluoro-7′-methoxy-2′-(5-pyrimidinyl)spiro[1,3-oxazole-4,9′-xanthen]-2-amine] | –
23 | 0.083 | – | 0.971 | NC1=N[C@@]2(CO1)c1cc(-c3ccncc3F)ccc1Oc1cnc(-c3cncc(F)c3)cc12 [Example 575, (5S)-7-(3-fluoro-4-pyridinyl)-3-(5-fluoro-3-pyridinyl)spiro[chromeno[2,3-c]pyridine-5,4′-[1,3]oxazol]-2′-amine] | –
24 | 0.202 | – | 1.92 | CC1(COc2ccc3c(c2)[C@@]2(COC(N)=N2)c2cc(Br)cc(F)c2O3)COC1 [Example 437, (4S)-2′-bromo-4′-fluoro-7′-((3-methyl-3-oxetanyl)methoxy)spiro[1,3-oxazole-4,9′-xanthen]-2-amine] | –
25 | 0.0037 | – | 0.036 | Cn1cc(-c2cnc3c(c2)[C@]2(CSC(N)=N2)c2cc(-c4cccnc4)ccc2O3)cn1 [Example 960, (5S)-3-(1-methyl-1H-pyrazol-4-yl)-7-(3-pyridinyl)spiro[chromeno[2,3-b]pyridine-5,4′-[1,3]thiazol]-2′-amine] | –
26 | 0.269 | – | ≥ 10 | NC1=N[C@]2(CO1)c1cc(-c3cccnc3F)ccc1Oc1nc(F)c(N3CCOCC3)cc12 [Example 904, (5R)-2-fluoro-7-(2-fluoro-3-pyridinyl)-3-(4-morpholinyl)spiro[chromeno[2,3-b]pyridine-5,4′-[1,3]oxazol]-2′-amine] | –
27 | 0.0018 | 0.171 | – | CC#Cc1cncc(-c2ccc3c(c2)[C@@]2(CSC(N)=N2)c2cc(-c4cncc(C#CC)c4)cnc2O3)c1 [Example 730, (5S)-3,7-bis(5-(1-propyn-1-yl)-3-pyridinyl)spiro[chromeno[2,3-b]pyridine-5,4′-[1,3]thiazol]-2′-amine] | –
28 | 0.0216 | – | 0.347 | NC1=N[C@@]2(CS1)c1cc(-c3cccnc3F)ccc1Oc1cnc([C@@H]3CCCOC3)cc12 [Example 931, (5S)-7-(2-fluoro-3-pyridinyl)-3-((3S)-tetrahydro-2H-pyran-3-yl)spiro[chromeno[2,3-c]pyridine-5,4′-[1,3]thiazol]-2′-amine] | –
29 | 0.33 | – | 2.79 | NC1=N[C@]2(CO1)c1cc(-c3cncc(F)c3)c(F)cc1Oc1ncc(C3=CCOCC3)cc12 [Example 648, (5R)-3-(3,6-dihydro-2H-pyran-4-yl)-8-fluoro-7-(5-fluoro-3-pyridinyl)spiro[chromeno[2,3-b]pyridine-5,4′-[1,3]oxazol]-2′-amine] | –
